Measurements: publication PMC9661397 (Circulation, 2020)

Key:
mice = test: Echocardiography and cardiac MRI of cardiac structure; type: in vivo, mouse
MEK5 = target: T1, MEK5 (Mus musculus, UniProt Q9WVS7); test: KiNativ chemoproteomic kinase profiling in mouse heart lysate; type: binding; settings: read-out: % inhibition of MEK5
T1 sequence (Q9WVS7 1-448): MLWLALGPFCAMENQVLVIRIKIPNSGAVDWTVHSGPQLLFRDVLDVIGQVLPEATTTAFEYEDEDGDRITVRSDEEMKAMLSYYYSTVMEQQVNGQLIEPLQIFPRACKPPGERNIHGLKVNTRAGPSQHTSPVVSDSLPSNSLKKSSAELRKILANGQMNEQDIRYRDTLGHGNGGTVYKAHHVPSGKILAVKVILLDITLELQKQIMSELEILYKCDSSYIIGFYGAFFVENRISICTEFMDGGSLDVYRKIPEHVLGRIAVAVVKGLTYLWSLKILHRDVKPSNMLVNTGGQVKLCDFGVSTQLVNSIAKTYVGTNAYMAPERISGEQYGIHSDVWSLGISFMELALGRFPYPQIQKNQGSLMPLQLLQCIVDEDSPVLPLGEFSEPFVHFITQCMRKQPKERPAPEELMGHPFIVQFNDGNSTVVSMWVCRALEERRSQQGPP

CSK = CSK (Mus musculus, UniProt P41241); test: as above; type: binding
Chain of CSK (P41241 whole entry): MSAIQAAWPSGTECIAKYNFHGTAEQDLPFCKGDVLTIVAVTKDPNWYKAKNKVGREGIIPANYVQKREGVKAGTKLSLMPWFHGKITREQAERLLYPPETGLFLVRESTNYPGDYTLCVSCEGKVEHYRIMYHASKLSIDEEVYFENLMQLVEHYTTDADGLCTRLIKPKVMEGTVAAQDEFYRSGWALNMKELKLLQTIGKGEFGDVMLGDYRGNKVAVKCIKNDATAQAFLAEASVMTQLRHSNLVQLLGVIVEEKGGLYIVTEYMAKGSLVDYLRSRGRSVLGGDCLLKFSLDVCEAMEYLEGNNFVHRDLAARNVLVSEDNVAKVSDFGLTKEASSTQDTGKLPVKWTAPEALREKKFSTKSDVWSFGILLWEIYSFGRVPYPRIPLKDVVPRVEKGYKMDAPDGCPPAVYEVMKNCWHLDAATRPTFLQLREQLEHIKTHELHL

RIPK3 = RIPK3 (Mus musculus, UniProt Q9QZL0); test: as above; type: binding; settings: read-out: % inhibition of RIPK3
Chain of RIPK3 (Q9QZL0 whole entry): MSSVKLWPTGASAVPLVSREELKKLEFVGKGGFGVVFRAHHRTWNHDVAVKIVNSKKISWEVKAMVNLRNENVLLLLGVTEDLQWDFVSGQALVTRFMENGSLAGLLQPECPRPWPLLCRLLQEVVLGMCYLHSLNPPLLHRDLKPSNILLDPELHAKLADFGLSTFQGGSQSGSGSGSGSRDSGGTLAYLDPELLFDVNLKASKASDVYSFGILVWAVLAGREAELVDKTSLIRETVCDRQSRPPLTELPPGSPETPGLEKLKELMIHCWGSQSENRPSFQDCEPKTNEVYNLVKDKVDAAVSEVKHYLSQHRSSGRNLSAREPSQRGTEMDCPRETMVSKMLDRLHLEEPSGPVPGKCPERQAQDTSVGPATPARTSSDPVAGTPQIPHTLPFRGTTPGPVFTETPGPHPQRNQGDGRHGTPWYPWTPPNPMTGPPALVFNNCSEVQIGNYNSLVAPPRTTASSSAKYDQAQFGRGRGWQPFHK

FYN = FYN (Mus musculus, UniProt P39688); test: as above; type: binding; settings: read-out: % inhibition of FYN
Chain of FYN (P39688 whole entry): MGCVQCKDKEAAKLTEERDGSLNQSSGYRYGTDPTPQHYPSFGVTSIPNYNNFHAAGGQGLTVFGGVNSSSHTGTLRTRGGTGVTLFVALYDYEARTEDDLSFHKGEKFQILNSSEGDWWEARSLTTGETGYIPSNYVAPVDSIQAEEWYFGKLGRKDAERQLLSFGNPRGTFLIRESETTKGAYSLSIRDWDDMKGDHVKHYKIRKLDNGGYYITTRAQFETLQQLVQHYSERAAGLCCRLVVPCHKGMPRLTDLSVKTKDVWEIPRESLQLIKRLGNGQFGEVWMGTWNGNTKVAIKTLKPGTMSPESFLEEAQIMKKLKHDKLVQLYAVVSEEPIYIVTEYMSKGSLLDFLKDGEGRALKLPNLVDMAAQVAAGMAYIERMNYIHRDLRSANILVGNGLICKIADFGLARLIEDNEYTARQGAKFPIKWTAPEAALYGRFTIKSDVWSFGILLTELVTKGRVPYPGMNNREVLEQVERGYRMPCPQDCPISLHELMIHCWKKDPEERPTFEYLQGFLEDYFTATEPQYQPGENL

BTK^xid mice = settings: 25 mg·kg−1·d−1 IP for 4 weeks, vs vehicle
C57BL/6J mice = test: In vivo electrophysiology study, AF induced by burst pacing; parameters: species or system mouse; settings: for AF inducibility: 25 mg·kg−1·d−1 IP for 4 weeks (28 days)
IL-6 = test: Plasma cytokine measurement; type: in vivo, mouse; settings: 25 mg/kg daily for 4 weeks, C57BL/6J mice, vs vehicle
TNFα = test: Plasma cytokine measurement; type: in vivo, mouse; settings: 25 mg/kg daily for 4 weeks, C57BL/6J mice, vs vehicle
[1] = tested on: Fn1, Col1a1, and Col3a1 mRNA; test: Quantitative real-time PCR of fibrosis markers in LA tissue; type: in vivo, mouse; settings: 25 mg/kg daily for 4 weeks, C57BL/6J mice
BTK = BTK (Mus musculus, UniProt P35991); test: KiNativ chemoproteomic kinase profiling in mouse heart lysate; type: binding; settings: read-out: % inhibition of BTK
Chain of BTK (P35991 whole entry): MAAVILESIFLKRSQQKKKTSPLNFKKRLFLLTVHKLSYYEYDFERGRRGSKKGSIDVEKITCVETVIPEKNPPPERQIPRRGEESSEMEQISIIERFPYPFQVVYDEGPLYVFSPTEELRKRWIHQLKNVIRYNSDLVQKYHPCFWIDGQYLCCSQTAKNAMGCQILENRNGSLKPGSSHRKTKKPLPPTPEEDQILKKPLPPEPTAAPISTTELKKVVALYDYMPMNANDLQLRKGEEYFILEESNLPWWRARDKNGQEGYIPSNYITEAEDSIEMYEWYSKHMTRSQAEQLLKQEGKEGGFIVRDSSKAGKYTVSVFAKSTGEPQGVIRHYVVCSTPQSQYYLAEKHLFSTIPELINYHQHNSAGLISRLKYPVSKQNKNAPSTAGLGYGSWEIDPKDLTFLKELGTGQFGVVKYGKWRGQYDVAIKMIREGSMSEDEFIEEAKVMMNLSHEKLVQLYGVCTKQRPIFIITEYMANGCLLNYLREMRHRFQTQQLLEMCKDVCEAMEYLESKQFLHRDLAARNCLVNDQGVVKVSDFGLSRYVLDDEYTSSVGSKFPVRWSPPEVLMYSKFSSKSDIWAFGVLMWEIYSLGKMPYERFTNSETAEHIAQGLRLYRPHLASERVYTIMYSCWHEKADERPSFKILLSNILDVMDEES

[2] = 25 mg/kg daily for 4 weeks, C57BL/6J mice, vs vehicle

C=CC(=O)N1CCC[C@@H](n2nc(-c3ccc(Oc4ccccc4)cc3)c3c(N)ncnc32)C1 [ibrutinib]
left ventricular ejection fraction (mice; 25 mg/kg daily for 4 weeks, C57BL/6J mice, MRI): preserved
atrial dilation (LA size) (mice; [2]): significant atrial dilation
LA enlargement (LA diameter by echocardiography) (mice; BTK^xid mice, 25 mg·kg−1·d−1 IP for 4 weeks): LA enlargement
inhibition at 10 µM (MEK5): > 90%
inhibition at 10 µM (CSK; read-out: % inhibition of CSK): > 90%
inhibition at 10 µM (RIPK3): > 90%
inhibition at 10 µM (FYN): > 90%
AF inducibility (BTK^xid mice): significant increase in AF inducibility
atrial effective refractory periods (C57BL/6J mice; [2]): prolonged
AF inducibility (C57BL/6J mice; C57BL/6J mice, vs vehicle): more inducible atrial fibrillation than vehicle injected mice
inducible AF (C57BL/6J mice; short duration exposure, mice): did not result in increased inducible AF
circulating interleukin-6 (IL-6) (IL-6): elevated
circulating tumor necrosis factor α (TNFα) (TNFα): elevated
expression of fibrosis markers fibronectin, and collagens 1α1 and 3α1 [1]: increased expression

CC#CC(=O)N1CCC[C@H]1c1nc(-c2ccc(C(=O)Nc3ccccn3)cc2)c2c(N)nccn12 [acalabrutinib]
% inhibition of CSK (CSK; 10 μM, 15 minutes, mouse heart lysate, ATP probe 20 μmol/L): do not inhibit CSK
inhibition at 10 µM (RIPK3): > 90%
AF inducibility (C57BL/6J mice; C57BL/6J mice, vs vehicle): did not cause AF
inhibition at 10 µM (BTK): > 90%

CN1CCN(CCOc2cc(OC3CCOCC3)c3c(Nc4c(Cl)ccc5c4OCO5)ncnc3c2)CC1 [saracatinib]
AF inducibility (C57BL/6J mice; C57BL/6J mice, vs vehicle): did not result in increased AF

CN(C)Cc1cccc(N/C(=C2\C(=O)Nc3cc(C(N)=O)ccc32)c2ccccc2)c1 [BIX-02188]
AF inducibility (C57BL/6J mice; C57BL/6J mice, vs vehicle): did not lead to an increase in AF inducibility
